The target of the assay is mTOR/GbL/Raptor (mTORC1) (Homo sapiens, UniProt P42345). Kind of assay: mTOR/GbL/Raptor (mTORC1) ELISA assay. Particulars: phosphorylation of 4E-BP1; 0.2 nM mTORC1, 10 μM ATP; read-out: IC50 in this assay (mTORC1 ELISA). Type of assay: biochemical. A digest of the protocol: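 ELISA read-out: phospho-4E-BP1 captured on Ni-chelate plates and detected with anti-phospho antibody plus HRP-anti-IgG luminescence. The kinase step ran 120 min at ambient temperature with 0.2 nM human mTORC1, 10 µM ATP, 50 nM His-4E-BP1, 10 mM MnCl2, pH 7.2 HEPES.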

Consider 21 compounds from US8648066B2 (Exelixis, Inc., priority 2009, dated 2014).

SMILES strings stand for the structures. Bounds are passed on as bounds.

In general, IC50 refers to the point on the concentration scale where inhibition reaches its midpoint. As to `CC[C@H](C)NCc1nc2c(c(N3CCOc4ccc(-c5cnc6nc(C)[nH]c6c5)cc4C3)n1)CC(C)(C)CC2` [Example 304, (2S)-N-({6,6-dimethyl-4-[7-(2-methyl-1H-imidazo[4,5-b]pyridin-6-yl)-2,3-dihydro-1,4-benzoxazepin-4(5H)-yl]-5,6,7,8-tetrahydroquinazolin-2-yl}methyl)butan-2-amine], the concentration for half-maximal inhibition (IC50) was at most 10 nM.
With `COCCOCc1nc2c(c(N3CCOc4ccc(-c5cnc6nc(C)[nH]c6c5)cc4C3)n1)CC(C)(C)CC2` [Example 495, 4-[6,6-dimethyl-2-({[2-(methyloxy)ethyl]oxy}methyl)-5,6,7,8-tetrahydroquinazolin-4-yl]-7-(2-methyl-1H-imidazo[4,5-b]pyridin-6-yl)-2,3,4,5-tetrahydro-1,4-benzoxazepine] the figure was at most 10 nM; with `CCNc1nc2ccc(-c3ccc4c(c3)CN(c3nc(NC)nc5ccccc35)CCO4)cc2[nH]1` [Example 269, 4-{7-[2-(ethylamino)-1H-benzimidazol-6-yl]-2,3-dihydro-1,4-benzoxazepin-4(5H)-yl}-N-methylquinazolin-2-amine], 250 to 1000 nM; with `COc1ccc2c(N3CCOc4ccc(-c5cnc6sc(NC(C)=O)nc6c5)cc4C3)nc(CN(C)C)nc2c1` [Example 618, N-[6-(4-{2-[(dimethylamino)methyl]-7-(methyloxy)quinazolin-4-yl}-2,3,4,5-tetrahydro-1,4-benzoxazepin-7-yl)[1,3]thiazolo[5,4-b]pyridin-2-yl]acetamide], 250 to 1000 nM.
On to `CCc1nc2ccc(-c3ccc4c(c3)CN(c3ncnc5c3CC(C)(C)CC5)CCO4)cc2[nH]1` [Example 254, 4-(6,6-dimethyl-5,6,7,8-tetrahydroquinazolin-4-yl)-7-(2-ethyl-1H-benzimidazol-6-yl)-2,3,4,5-tetrahydro-1,4-benzoxazepine], for which the IC50 was at most 10 nM.
The figure for `CCc1nc2cc(-c3ccc4c(c3)CN(c3ncnc5c3CC(C)(C)CC5)CCO4)cnc2[nH]1` [Example 220, 4-(6,6-dimethyl-5,6,7,8-tetrahydroquinazolin-4-yl)-7-(2-ethyl-3H-imidazo[4,5-b]pyridin-6-yl)-2,3,4,5-tetrahydro-1,4-benzoxazepine] is at most 10 nM; for `COc1c(OCC2CC2)ccc2c(N3CCOc4ccc(-c5ccc6nc(C)[nH]c6c5)cc4C3)ncnc12` [Example 168, 4-{7-[(cyclopropylmethyl)oxy]-8-(methyloxy)quinazolin-4-yl}-7-(2-methyl-1H-benzimidazol-6-yl)-2,3,4,5-tetrahydro-1,4-benzoxazepine] it is 250 to 1000 nM; for `Nc1nc2ccc(-c3ccc4c(c3)CN(c3nc(-c5ccccc5)nc5ccccc35)CCO4)cc2[nH]1` [Example 233, 6-[4-(2-phenylquinazolin-4-yl)-2,3,4,5-tetrahydro-1,4-benzoxazepin-7-yl]-1H-benzimidazol-2-amine] it is 50 to 250 nM.
With `Cc1nc(CN(C)C)nc(N2CCOc3ccc(-c4ccc5[nH]c(CF)nc5c4)cc3C2)c1C(C)C` [Example 332, 1-[4-{7-[2-(fluoromethyl)-1H-benzimidazol-5-yl]-2,3-dihydro-1,4-benzoxazepin-4(5H)-yl}-6-methyl-5-(1-methylethyl)pyrimidin-2-yl]-N,N-dimethylmethanamine] the figure was 50 to 250 nM; with `Cc1nc(N)nc(N2CCOc3ccc(-c4cnc5sc(N)nc5c4)cc3C2)c1Cc1ccc(F)cc1` [Example 692, 6-(4-{2-amino-5-[(4-fluorophenyl)methyl]-6-methylpyrimidin-4-yl}-2,3,4,5-tetrahydro-1,4-benzoxazepin-7-yl)[1,3]thiazolo[5,4-b]pyridin-2-amine], at most 10 nM; with `C[C@@H](CO)CS(=O)(=O)c1cc(-c2ccc3c(c2)CN(c2ncnc4c2CC(C)(C)CC4)CCO3)cnc1N` [Example 301, (2S)-3-({2-amino-5-[4-(6,6-dimethyl-5,6,7,8-tetrahydroquinazolin-4-yl)-2,3,4,5-tetrahydro-1,4-benzoxazepin-7-yl]pyridin-3-yl}sulfonyl)-2-methylpropan-1-ol], 10 to 50 nM.
The figure for `CCNc1nc2ccc(-c3ccc4c(c3)CN(c3nc(CC)nc5ccccc35)CCO4)cc2[nH]1` [Example 260, N-ethyl-6-[4-(2-ethylquinazolin-4-yl)-2,3,4,5-tetrahydro-1,4-benzoxazepin-7-yl]-1H-benzimidazol-2-amine] is 50 to 250 nM; for `COc1cc2ncnc(N3CCOc4ccc(-c5ccc6nc(C)[nH]c6c5)cc4C3)c2cc1Cl` [Example 38, 4-[6-chloro-7-(methyloxy)quinazolin-4-yl]-7-(2-methyl-1H-benzimidazol-6-yl)-2,3,4,5-tetrahydro-1,4-benzoxazepine] it is 10 to 50 nM; for `CCNc1nc2ccc(-c3ccc4c(c3)CN(c3nc(C)nc5ccccc35)CCO4)cc2[nH]1` [Example 228, N-ethyl-6-[4-(2-methylquinazolin-4-yl)-2,3,4,5-tetrahydro-1,4-benzoxazepin-7-yl)-1H-benzimidazol-2-amine] it is 50 to 250 nM.
Take `CN(C)Cc1nc2c(c(N3CCOc4ccc(-c5ccc6[nH]c(C(F)F)nc6c5)cc4C3)n1)CC(C)(C)CC2` [Example 320]: the IC50 is 10 to 50 nM.
As for `CC1(C)CCc2ncnc(N3CCOc4ccc(-c5cnc(Cl)c(NS(C)(=O)=O)c5)cc4C3)c2C1` [Example 623, N-{2-chloro-5-[4-(6,6-dimethyl-5,6,7,8-tetrahydroquinazolin-4-yl)-2,3,4,5-tetrahydro-1,4-benzoxazepin-7-yl]pyridin-3-yl}methanesulfonamide], the IC50 is 10 to 50 nM.
With `Cc1nc2ncc(-c3ccc4c(c3)CN(c3nc(CNCC(F)F)nc5c3CC(C)(C)CC5)CCO4)cc2[nH]1` [Example 592, N-({6,6-dimethyl-4-[7-(2-methyl-1H-imidazo[4,5-b]pyridin-6-yl)-2,3-dihydro-1,4-benzoxazepin-4(5H)-yl]-5,6,7,8-tetrahydroquinazolin-2-yl}methyl)-2,2-difluoroethanamine] the figure was at most 10 nM.
The figure for `CN(c1cc(-c2ccc3c(c2)CN(c2ncnc4c2CC(C)(C)CC4)CCO3)cnc1Cl)S(C)(=O)=O` [Example 624, N-{2-chloro-5-[4-(6,6-dimethyl-5,6,7,8-tetrahydroquinazolin-4-yl)-2,3,4,5-tetrahydro-1,4-benzoxazepin-7-yl]pyridin-3-yl}-N-methylmethanesulfonamide] is 250 to 1000 nM; for `COc1ccc2c(N3CCOc4ccc(-c5ccc6[nH]ncc6c5)cc4C3)nc(C)nc2c1` [Example 274, 7-(1H-indazol-5-yl)-4-[2-methyl-7-(methyloxy)quinazolin-4-yl]-2,3,4,5-tetrahydro-1,4-benzoxazepine] it is at least 2000 nM.
With `COc1ccc2c(N3CCOc4ccc(-c5cnc6sc(N)nc6c5)cc4C3)nc(CN(C)C)nc2c1` [Example 527, 6-(4-{2-[(dimethylamino)methyl]-7-(methyloxy)quinazolin-4-yl}-2,3,4,5-tetrahydro-1,4-benzoxazepin-7-yl)[1,3]thiazolo[5,4-b]pyridin-2-amine] the figure was 250 to 1000 nM; with `Cc1ccc(Cc2c(C)ncnc2N2CCOc3ccc(-c4ccc5nc(C)[nH]c5c4)cc3C2)cc1` [Example 78, 7-(2-methyl-1H-benzimidazol-6-yl)-4-{6-methyl-5-[(4-methylphenyl)methyl]pyrimidin-4-yl}-2,3,4,5-tetrahydro-1,4-benzoxazepine], at most 10 nM.
